Laboratory results as given in EP4786487A1, “PEPTIDE” (Peptidream Inc, priority 2023, dated 2025).
Starred links: 1 amine or outer side, 2 acyl side, 3 side chain; linkers in the order of their positions; H or OH if unused. Positions of bridges follow the written chain, without caps; N, C: chain ends. Non-standard residues stand in square brackets, D forms with d. Residues, ends and D or L forms follow the SMILES beside them. Phe(3-OCH2COOH) = N[C@@H](Cc1cccc(OCC(=O)O)c1)C(=O)O; Phe(4-COOH) = N[C@@H](Cc1ccc(C(=O)O)cc1)C(=O)O; Gly(decyl) = CCCCCCCCCC[C@H](N)C(=O)O; Gly(N(CH2)3COOH) = O=C(O)CCCNCC(=O)O; Gly(octyl) = CCCCCCCC[C@H](N)C(=O)O; X1 = CCCCCCC[C@H](N[*:1])C(=O)[*:2]; NMeF = CN[C@@H](Cc1ccccc1)C(=O)O; Aoc(2) = CCCCCC[C@H](N)C(=O)O; Ahp(2) = CCCCC[C@H](N)C(=O)O; NMeA = CN[C@@H](C)C(=O)O; Sar = CNCC(=O)O

Key:
Format in all cases: cell-based
Myostatin [1] = molecular target: T1, Myostatin (Homo sapiens, UniProt O14793); experiment: Reporter gene assay for myostatin signaling in HepG2 cell line, Evaluation Procedure (1), myostatin inhibition; conditions: Method A: Myostatin 10 ng/mL; read-out: IC50 (Luciferase) Myostatin HepG2
T1 construct: active myostatin (also called mature myostatin) is a homodimer consisting of two C-terminal growth factor domains; purchased R&D systems 788-G8/CF
T1 sequence (O14793 267-375): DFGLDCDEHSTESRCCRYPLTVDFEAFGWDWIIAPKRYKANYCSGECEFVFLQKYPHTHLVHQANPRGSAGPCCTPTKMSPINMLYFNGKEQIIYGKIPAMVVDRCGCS
Procedure, shortened: (§1)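 IC50 derived from One-Glo luciferase luminescence after 20–24 h at 37 °C. Peptides titrated 4-fold at 0.006–100 nmol/L against myostatin or 0.12–2000 nmol/L against GDF-11 in HepG2 cells carrying a transfected CAGA12-luciferase reporter, kept in 0.1% BSA EMEM.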

Myostatin [2] = experiment: as above; conditions: Method A; GDF-11 IC50 versus Myostatin IC50
Procedure, shortened: as §1

GDF-11 = molecular target: T2, GDF-11 (Homo sapiens, UniProt O95390); experiment: Reporter gene assay for myostatin signaling in HepG2 cell line, Evaluation Procedure (1), GDF-11 inhibition; conditions: Method A: GDF-11 10 ng/mL; read-out: IC50 (Luciferase) GDF-11 HepG2
T2 construct: purchased R&D systems 1958-GD-G8/CF
T2 sequence (O95390 299-407): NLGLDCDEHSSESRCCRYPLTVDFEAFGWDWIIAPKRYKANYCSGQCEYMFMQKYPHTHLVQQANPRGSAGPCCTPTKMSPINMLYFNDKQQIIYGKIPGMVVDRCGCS
Procedure, shortened: as §1

IC50 (Myostatin [1])	IC50 (GDF-11)	SMILES	Selectivity (Myostatin [2])
0.001 µM	0.057 µM	CCCCCCC[C@@H]1NC(=O)[C@H](Cc2ccccc2)N(C)C(=O)[C@H](CCCNC(=N)N)NC(=O)[C@H](Cc2ccc(C(=O)O)cc2)NC(=O)[C@H](Cc2ccc(O)cc2)NC(=O)CN(C)C(=O)[C@H]([C@@H](C)CC)NC(=O)[C@H](Cc2ccccc2)N(C)C(=O)[C@H](Cc2ccc(O)cc2)NC(=O)[C@H](Cc2c[nH]c3ccccc23)NC(=O)[C@H](C)NC(=O)[C@H](C)NC(=O)CSC[C@H](C(=O)O)NC(=O)[C@H](Cc2ccccc2)N(C)C(=O)[C@H](C)N(C)C1=O [Myostatin_99_v193] ({CH2CO}-AAWY[NMeF]I[Sar]Y[Phe(4-COOH)]R[NMeF][X1][NMeA][NMeF][dC]-OH; thioether N-15)	57
0.0012 µM	0.139 µM	CCCCCCC[C@@H]1NC(=O)[C@H](Cc2ccccc2)N(C)C(=O)[C@H](CCCNC(=N)N)NC(=O)[C@H](Cc2ccc(C(=O)O)cc2)NC(=O)[C@H](Cc2cccc(OCC(=O)O)c2)NC(=O)[C@H](C)N(C)C(=O)[C@H]([C@@H](C)CC)NC(=O)[C@H](Cc2ccccc2)N(C)C(=O)[C@H](Cc2ccc(O)cc2)NC(=O)[C@H](Cc2c[nH]c3ccccc23)NC(=O)[C@H](C)NC(=O)[C@H](C)NC(=O)CSC[C@H](C(=O)O)NC(=O)[C@H](Cc2ccccc2)N(C)C(=O)[C@H](C)N(C)C1=O [Myostatin_99_v194] ({CH2CO}-AAWY[NMeF]I[NMeA][Phe(3-OCH2COOH)][Phe(4-COOH)]R[NMeF][X1][NMeA][NMeF][dC]-OH; thioether N-15)	116
0.0086 µM	2.26 µM	CCCCC[C@@H]1NC(=O)[C@H](Cc2ccccc2)N(C)C(=O)[C@H](CCCNC(=N)N)NC(=O)[C@H](Cc2ccc(C(=O)O)cc2)NC(=O)[C@H](Cc2cccc(OCC(=O)O)c2)NC(=O)CN(C)C(=O)[C@H]([C@@H](C)CC)NC(=O)[C@H](Cc2ccccc2)N(C)C(=O)[C@H](Cc2ccc(O)cc2)NC(=O)[C@H](Cc2c[nH]c3ccccc23)NC(=O)[C@H](C)NC(=O)[C@H](C)NC(=O)CSC[C@H](C(=O)O)NC(=O)[C@H](Cc2ccccc2)N(C)C(=O)[C@H](C)N(C)C1=O [Myostatin_99_v201] ({CH2CO}-AAWY[NMeF]I[Sar][Phe(3-OCH2COOH)][Phe(4-COOH)]R[NMeF][Ahp(2)][NMeA][NMeF][dC]-OH; thioether N-15)	262
0.0035 µM	0.27 µM	CCCCCC[C@@H]1NC(=O)[C@H](Cc2ccccc2)N(C)C(=O)[C@H](CCCNC(=N)N)NC(=O)[C@H](Cc2ccc(C(=O)O)cc2)NC(=O)[C@H](Cc2cccc(OCC(=O)O)c2)NC(=O)CN(C)C(=O)[C@H]([C@@H](C)CC)NC(=O)[C@H](Cc2ccccc2)N(C)C(=O)[C@H](Cc2ccc(O)cc2)NC(=O)[C@H](Cc2c[nH]c3ccccc23)NC(=O)[C@H](C)NC(=O)[C@H](C)NC(=O)CSC[C@H](C(=O)O)NC(=O)[C@H](Cc2ccccc2)N(C)C(=O)[C@H](C)N(C)C1=O [Myostatin_99_v207] ({CH2CO}-AAWY[NMeF]I[Sar][Phe(3-OCH2COOH)][Phe(4-COOH)]R[NMeF][Aoc(2)][NMeA][NMeF][dC]-OH; thioether N-15)	77

Further lines, the compound ahead of its results:

SMILES	IC50 (Myostatin [1])	IC50 (GDF-11)	Selectivity (Myostatin [2])
CCCCCCC[C@@H]1NC(=O)[C@H](Cc2ccccc2)N(C)C(=O)[C@H](CCCNC(=N)N)NC(=O)[C@H](Cc2ccc(C(=O)O)cc2)NC(=O)[C@H](Cc2cccc(OCC(=O)O)c2)NC(=O)[C@H](C)N(C)C(=O)[C@H]([C@@H](C)CC)NC(=O)[C@H](Cc2ccccc2)N(C)C(=O)[C@H](Cc2ccc(O)cc2)NC(=O)[C@H](Cc2c[nH]c3ccccc23)NC(=O)[C@H](C)NC(=O)[C@H](C)N(C)C(=O)CSC[C@H](C(=O)O)NC(=O)[C@H](Cc2ccccc2)N(C)C(=O)[C@H](C)N(C)C1=O [Myostatin_99_v195] ({CH2CO}-[NMeA]AWY[NMeF]I[NMeA][Phe(3-OCH2COOH)][Phe(4-COOH)]R[NMeF][X1][NMeA][NMeF][dC]-OH; thioether N-15)	0.0013 µM	0.255 µM	196
CCCCCCC[C@@H]1NC(=O)[C@H](Cc2ccccc2)N(C)C(=O)[C@H](CCCNC(=N)N)NC(=O)[C@H](Cc2ccc(C(=O)O)cc2)NC(=O)[C@H](Cc2cccc(OCC(=O)O)c2)NC(=O)[C@H](C)N(C)C(=O)[C@H]([C@@H](C)CC)NC(=O)[C@H](Cc2ccccc2)N(C)C(=O)[C@H](Cc2ccc(O)cc2)NC(=O)[C@H](Cc2c[nH]c3ccccc23)NC(=O)[C@H](C)NC(=O)CN(CCCC(=O)O)C(=O)CSC[C@H](C(N)=O)NC(=O)[C@H](Cc2ccccc2)N(C)C(=O)[C@H](C)N(C)C1=O [Myostatin_99_v196] ({CH2CO}-[Gly(N(CH2)3COOH)]AWY[NMeF]I[NMeA][Phe(3-OCH2COOH)][Phe(4-COOH)]R[NMeF][X1][NMeA][NMeF][dC]-NH2; thioether N-15)	0.0034 µM	0.603 µM	177
CCCCCCC[C@@H]1NC(=O)[C@H](Cc2ccccc2)N(C)C(=O)[C@H](CCCNC(=N)N)NC(=O)[C@H](Cc2ccc(C(=O)O)cc2)NC(=O)[C@H](Cc2cccc(OCC(=O)O)c2)NC(=O)[C@H](C)N(C)C(=O)[C@H]([C@@H](C)CC)NC(=O)[C@H](Cc2ccccc2)N(C)C(=O)[C@H](Cc2ccc(O)cc2)NC(=O)[C@H](Cc2c[nH]c3ccccc23)NC(=O)[C@H](CO)NC(=O)[C@H](C)NC(=O)CSC[C@H](C(=O)O)NC(=O)[C@H](Cc2ccccc2)N(C)C(=O)[C@H](C)N(C)C1=O [Myostatin_99_v197] ({CH2CO}-ASWY[NMeF]I[NMeA][Phe(3-OCH2COOH)][Phe(4-COOH)]R[NMeF][X1][NMeA][NMeF][dC]-OH; thioether N-15)	0.0034 µM	0.438 µM	129
CCCCCCCCCC[C@@H]1NC(=O)[C@H](Cc2ccccc2)N(C)C(=O)[C@H](CCCNC(=N)N)NC(=O)[C@H](Cc2ccc(C(=O)O)cc2)NC(=O)[C@H](Cc2cccc(OCC(=O)O)c2)NC(=O)[C@H](C)N(C)C(=O)[C@H]([C@@H](C)CC)NC(=O)[C@H](Cc2ccccc2)N(C)C(=O)[C@H](Cc2ccc(O)cc2)NC(=O)[C@H](Cc2c[nH]c3ccccc23)NC(=O)[C@H](C)NC(=O)CN(CCCC(=O)O)C(=O)CSC[C@H](C(=O)O)NC(=O)[C@H](Cc2ccccc2)N(C)C(=O)[C@H](C)N(C)C1=O [Myostatin_99_v198] ({CH2CO}-[Gly(N(CH2)3COOH)]AWY[NMeF]I[NMeA][Phe(3-OCH2COOH)][Phe(4-COOH)]R[NMeF][Gly(decyl)][NMeA][NMeF][dC]-OH; thioether N-15)	0.0007 µM	0.09 µM	123
CCCCCCCC[C@@H]1NC(=O)[C@H](Cc2ccccc2)N(C)C(=O)[C@H](CCCNC(=N)N)NC(=O)[C@H](Cc2ccc(C(=O)O)cc2)NC(=O)[C@H](Cc2cccc(OCC(=O)O)c2)NC(=O)[C@H](C)N(C)C(=O)[C@H]([C@@H](C)CC)NC(=O)[C@H](Cc2ccccc2)N(C)C(=O)[C@H](Cc2ccc(O)cc2)NC(=O)[C@H](Cc2c[nH]c3ccccc23)NC(=O)[C@H](C)NC(=O)CN(CCCC(=O)O)C(=O)CSC[C@H](C(=O)O)NC(=O)[C@H](Cc2ccccc2)N(C)C(=O)[C@H](C)N(C)C1=O [Myostatin_99_v199] ({CH2CO}-[Gly(N(CH2)3COOH)]AWY[NMeF]I[NMeA][Phe(3-OCH2COOH)][Phe(4-COOH)]R[NMeF][Gly(octyl)][NMeA][NMeF][dC]-OH; thioether N-15)	0.0012 µM	0.159 µM	133
CCCCCCCC[C@@H]1NC(=O)[C@H](Cc2ccccc2)N(C)C(=O)[C@H](CCCNC(=N)N)NC(=O)[C@H](Cc2ccc(C(=O)O)cc2)NC(=O)[C@H](Cc2cccc(OCC(=O)O)c2)NC(=O)CN(C)C(=O)[C@H]([C@@H](C)CC)NC(=O)[C@H](Cc2ccccc2)N(C)C(=O)[C@H](Cc2ccc(O)cc2)NC(=O)[C@H](Cc2c[nH]c3ccccc23)NC(=O)[C@H](C)NC(=O)CN(CCCC(=O)O)C(=O)CSC[C@H](C(=O)O)NC(=O)[C@H](Cc2ccccc2)N(C)C(=O)[C@H](C)N(C)C1=O [Myostatin_99_v200] ({CH2CO}-[Gly(N(CH2)3COOH)]AWY[NMeF]I[Sar][Phe(3-OCH2COOH)][Phe(4-COOH)]R[NMeF][Gly(octyl)][NMeA][NMeF][dC]-OH; thioether N-15)	0.001 µM	0.233 µM	233
CCCCCCC[C@@H]1NC(=O)[C@H](Cc2ccccc2)N(C)C(=O)[C@H](CCCNC(=N)N)NC(=O)[C@H](Cc2ccc(C(=O)O)cc2)NC(=O)[C@H](Cc2cccc(OCC(=O)O)c2)NC(=O)CN(C)C(=O)[C@H]([C@@H](C)CC)NC(=O)[C@H](Cc2ccccc2)NC(=O)[C@H](Cc2ccc(O)cc2)NC(=O)[C@H](Cc2c[nH]c3ccccc23)NC(=O)[C@H](C)NC(=O)[C@H](C)NC(=O)CSC[C@H](C(=O)O)NC(=O)[C@H](Cc2ccccc2)N(C)C(=O)[C@H](C)N(C)C1=O [Myostatin_99_v209] ({CH2CO}-AAWYFI[Sar][Phe(3-OCH2COOH)][Phe(4-COOH)]R[NMeF][X1][NMeA][NMeF][dC]-OH; thioether N-15)	0.0054 µM	0.794 µM	147
